Experiments:
Assay type in all cases: cell-based
Actinomyces naeslundii = test: Metabolic activity, Biolog phenotype microarray; settings: A naeslundii
Description: (§1) The extent of metabolic activity of the tested bacteria in the presence of the above-mentioned acids after 24 hours and 48 hours was investigated through a high throughput phenotype microarray system (PM) for microbial cells (Biolog Inc.). Each PM can contain up to 95 different biochemical compounds (e.g. organic acids) that may act as substrates for bacteria as well as one negative control, not containing the substrates. Microarray plates were used in which the different wells of each plate were pre-loaded (by the manufacturer, Biolog Inc.) with different organic acids to be tested. Each bacterial species was tested using a separate microarray plate. Thus, a single bacterial species was tested with a variety of organic acids on each particular plate. The microarrays are based on redox technology, using cell respiration as a universal reporter. […] The observation of this color change indicates which of the substrates improve the metabolic activity and health of the cells.
(§2) Each bacterial species was collected from blood agar plates (incubated for 48 hours anaerobically at 37° C.) and transferred to an IF-0 Base inoculation fluid (Biolog Inc.), which is a nutritionally poor medium. […] A 1:5 dilution of this suspension was prepared by mixing 3 mL of the 42% transmittance cell suspension with 15 mL of an inoculation fluid (which inoculation fluid was formed by mixing 11.6 mL sterile water, 62.5 mL IF-0 base inoculation fluid and 0.9 mL of the tetrazolium dye “Biolog Redox Dye mix D”), resulting in a final cell density which was equal to 85% transmittance using a BioRad SmartSpec 3000 Photometer. For each of the acids tested, the microarray plate (obtained from the supplier (Biolog Inc.) with acid already present in the relevant wells in powder form) was directly inoculated with 100 μL/well of this 85% transmittance cell suspension.
(§3) All plates were incubated in an anaerobic atmosphere at 37° C. Color changes were measured spectrophotometrically at 492 nm (Thermo Scientific Multiskan Ascent) at 24 hrs and 48 hrs using the same plate at both time points.
(§4) The controls were also carried out three times, as above.

Actinomyces viscosus = test: Metabolic activity, Biolog phenotype microarray; settings: A viscosus
Description: as §1, §2, §3, §4

[1] = test system: Aggregatibacter actinomycetemcomitans; test: Metabolic activity, Biolog phenotype microarray; settings: A actinomycetemcomitans
Description: as §1, §2, §3, §4

Capnocytophaga sputigena = test: Metabolic activity, Biolog phenotype microarray; settings: C sputigena
Description: as §1, §2, §3, §4

Fusobacterium nucleatum = test: Metabolic activity, Biolog phenotype microarray; settings: F nucleatum
Description: as §1, §2, §3, §4

Porphyromonas gingivalis = test: Metabolic activity, Biolog phenotype microarray; settings: P gingivalis
Description: as §1, §2, §3, §4

Prevotella intermedia = test: Metabolic activity, Biolog phenotype microarray; settings: P intermedia
Description: as §1, §2, §3, §4

Streptococcus gordonii = test: Metabolic activity, Biolog phenotype microarray; settings: S gordonii
Description: as §1, §2, §3, §4

Streptococcus mitis = test: Metabolic activity, Biolog phenotype microarray; settings: S mitis
Description: as §1, §2, §3, §4

Streptococcus mutans = test: Metabolic activity, Biolog phenotype microarray; settings: S mutans
Description: as §1, §2, §3, §4

Streptococcus salivarius = test: Metabolic activity, Biolog phenotype microarray; settings: S salivarius
Description: as §1, §2, §3, §4

Streptococcus sanguinis = test: Metabolic activity, Biolog phenotype microarray; settings: S sanguinis
Description: as §1, §2, §3, §4

Streptococcus sobrinus = test: Metabolic activity, Biolog phenotype microarray; settings: S sobrinus
Description: as §1, §2, §3, §4

Tannerella forsythia = test: Metabolic activity, Biolog phenotype microarray; settings: T forsythia
Description: as §1, §2, §3, §4

Veillonella parvula = test: Metabolic activity, Biolog phenotype microarray; settings: V parvula
Description: as §1, §2, §3, §4

[2] = test system: beneficial oral bacteria and pathogenic oral bacteria; test: Metabolic activity, prebiotic effect over the whole panel; settings: 48 hrs; threshold value of 2
Description: as §1, §2, §3, §4

Question: Which results are given for `O=C(O)CC(O)(CC(=O)O)C(=O)O` [Citric acid, citric acid]?
Answer: metabolic activity, OD at 492 nm divided by OD of control (control = 1) (Actinomyces naeslundii; 24 hrs): 0.8551; metabolic activity, OD at 492 nm divided by OD of control (control = 1) (Actinomyces naeslundii; 48 hrs): 0.7965; metabolic activity, OD at 492 nm divided by OD of control (control = 1) (Actinomyces viscosus; 24 hrs): 0.9333; metabolic activity, OD at 492 nm divided by OD of control (control = 1) (Actinomyces viscosus; 48 hrs): 0.9052; metabolic activity, OD at 492 nm divided by OD of control (control = 1) ([1]; 24 hrs): 1.3098; metabolic activity, OD at 492 nm divided by OD of control (control = 1) ([1]; 48 hrs): 1.4736; metabolic activity, OD at 492 nm divided by OD of control (control = 1) (Capnocytophaga sputigena; 24 hrs): 0.5992; metabolic activity, OD at 492 nm divided by OD of control (control = 1) (Capnocytophaga sputigena; 48 hrs): 0.8818; metabolic activity, OD at 492 nm divided by OD of control (control = 1) (Fusobacterium nucleatum; 24 hrs): 0.7626; metabolic activity, OD at 492 nm divided by OD of control (control = 1) (Fusobacterium nucleatum; 48 hrs): 0.6603; metabolic activity, OD at 492 nm divided by OD of control (control = 1) (Porphyromonas gingivalis; 24 hrs): 0.8443; metabolic activity, OD at 492 nm divided by OD of control (control = 1) (Porphyromonas gingivalis; 48 hrs): 0.8692; metabolic activity, OD at 492 nm divided by OD of control (control = 1) (Prevotella intermedia; 24 hrs): 0.9626; metabolic activity, OD at 492 nm divided by OD of control (control = 1) (Prevotella intermedia; 48 hrs): 0.8872; metabolic activity, OD at 492 nm divided by OD of control (control = 1) (Streptococcus gordonii; 24 hrs): 0.9010; metabolic activity, OD at 492 nm divided by OD of control (control = 1) (Streptococcus gordonii; 48 hrs): 0.7481; metabolic activity, OD at 492 nm divided by OD of control (control = 1) (Streptococcus mitis; 24 hrs): 1.0814; metabolic activity, OD at 492 nm divided by OD of control (control = 1) (Streptococcus mitis; 48 hrs): 0.8953; metabolic activity, OD at 492 nm divided by OD of control (control = 1) (Streptococcus mutans; 24 hrs): 1.1156; metabolic activity, OD at 492 nm divided by OD of control (control = 1) (Streptococcus mutans; 48 hrs): 1.0700; metabolic activity, OD at 492 nm divided by OD of control (control = 1) (Streptococcus salivarius; 24 hrs): 0.9935; metabolic activity, OD at 492 nm divided by OD of control (control = 1) (Streptococcus salivarius; 48 hrs): 0.9148; metabolic activity, OD at 492 nm divided by OD of control (control = 1) (Streptococcus sanguinis; 24 hrs): 0.8938; metabolic activity, OD at 492 nm divided by OD of control (control = 1) (Streptococcus sanguinis; 48 hrs): 0.8704; metabolic activity, OD at 492 nm divided by OD of control (control = 1) (Streptococcus sobrinus; 24 hrs): 0.9828; metabolic activity, OD at 492 nm divided by OD of control (control = 1) (Streptococcus sobrinus; 48 hrs): 0.8769; metabolic activity, OD at 492 nm divided by OD of control (control = 1) (Tannerella forsythia; 24 hrs): 0.9320; metabolic activity, OD at 492 nm divided by OD of control (control = 1) (Tannerella forsythia; 48 hrs): 0.8510; metabolic activity, OD at 492 nm divided by OD of control (control = 1) (Veillonella parvula; 24 hrs): 1.2832; metabolic activity, OD at 492 nm divided by OD of control (control = 1) (Veillonella parvula; 48 hrs): 2.0488; prebiotic effect (metabolic activity) [2]: exhibited prebiotic effects

Question: `O=C(O)[C@H](O)[C@@H](O)[C@H](O)[C@H](O)CO[C@H]1O[C@H](CO)[C@H](O)[C@H](O)[C@H]1O` [Melibionic acid, melibionic acid] was tested. Which “metabolic activity, OD at 492 nm divided by OD of control (control = 1)” value (from here on “metabolic activity, OD at 492 nm divided”) (Actinomyces naeslundii; 24 hrs) did it give?
Answer: 1.2539

Question: What about the “metabolic activity, OD at 492 nm divided” value (Actinomyces naeslundii; 48 hrs) of the same compound?
Answer: 1.3926

Question: What about the “metabolic activity, OD at 492 nm divided” value (Actinomyces viscosus; 24 hrs) of the same compound?
Answer: 1.6342

Question: What about the “metabolic activity, OD at 492 nm divided” value (Actinomyces viscosus; 48 hrs) of the same compound?
Answer: 2.0904

Question: And the “metabolic activity, OD at 492 nm divided” value ([1]; 24 hrs)?
Answer: 0.9361

Question: And the “metabolic activity, OD at 492 nm divided” value ([1]; 48 hrs)?
Answer: 0.8912

Question: What about the “metabolic activity, OD at 492 nm divided” value (Capnocytophaga sputigena; 24 hrs) of the same compound?
Answer: 0.6213

Question: And the “metabolic activity, OD at 492 nm divided” value (Capnocytophaga sputigena; 48 hrs)?
Answer: 0.9143

Question: And the “metabolic activity, OD at 492 nm divided” value (Fusobacterium nucleatum; 24 hrs)?
Answer: 0.9131

Question: What about the “metabolic activity, OD at 492 nm divided” value (Fusobacterium nucleatum; 48 hrs) of the same compound?
Answer: 0.8299

Question: What about the “metabolic activity, OD at 492 nm divided” value (Porphyromonas gingivalis; 24 hrs) of the same compound?
Answer: 0.8689

Question: And the “metabolic activity, OD at 492 nm divided” value (Porphyromonas gingivalis; 48 hrs)?
Answer: 0.9301

Question: And the “metabolic activity, OD at 492 nm divided” value (Prevotella intermedia; 24 hrs)?
Answer: 1.0625

Question: What about the “metabolic activity, OD at 492 nm divided” value (Prevotella intermedia; 48 hrs) of the same compound?
Answer: 1.0988

Question: What about the “metabolic activity, OD at 492 nm divided” value (Streptococcus gordonii; 24 hrs) of the same compound?
Answer: 1.0326

Question: What about the “metabolic activity, OD at 492 nm divided” value (Streptococcus gordonii; 48 hrs) of the same compound?
Answer: 0.9389

Question: What about the “metabolic activity, OD at 492 nm divided” value (Streptococcus mitis; 24 hrs) of the same compound?
Answer: 1.0443

Question: What about the “metabolic activity, OD at 492 nm divided” value (Streptococcus mitis; 48 hrs) of the same compound?
Answer: 0.9983

Question: And the “metabolic activity, OD at 492 nm divided” value (Streptococcus mutans; 24 hrs)?
Answer: 1.1010

Question: What about the “metabolic activity, OD at 492 nm divided” value (Streptococcus mutans; 48 hrs) of the same compound?
Answer: 1.0362

Question: And the “metabolic activity, OD at 492 nm divided” value (Streptococcus salivarius; 24 hrs)?
Answer: 0.9984

Question: What about the “metabolic activity, OD at 492 nm divided” value (Streptococcus salivarius; 48 hrs) of the same compound?
Answer: 0.9237

Question: And the “metabolic activity, OD at 492 nm divided” value (Streptococcus sanguinis; 24 hrs)?
Answer: 1.0430

Question: What about the “metabolic activity, OD at 492 nm divided” value (Streptococcus sanguinis; 48 hrs) of the same compound?
Answer: 1.0832

Question: And the “metabolic activity, OD at 492 nm divided” value (Streptococcus sobrinus; 24 hrs)?
Answer: 1.1366

Question: What about the “metabolic activity, OD at 492 nm divided” value (Streptococcus sobrinus; 48 hrs) of the same compound?
Answer: 1.1222

Question: What about the “metabolic activity, OD at 492 nm divided” value (Tannerella forsythia; 24 hrs) of the same compound?
Answer: 1.0848

Question: And the “metabolic activity, OD at 492 nm divided” value (Tannerella forsythia; 48 hrs)?
Answer: 1.1865

Question: What about the “metabolic activity, OD at 492 nm divided” value (Veillonella parvula; 24 hrs) of the same compound?
Answer: 0.8685

Question: What about the “metabolic activity, OD at 492 nm divided” value (Veillonella parvula; 48 hrs) of the same compound?
Answer: 0.6981

Question: What about the “prebiotic effect (metabolic activity)” value [2] of the same compound?
Answer: exhibited prebiotic effects

From patent US10945932B2, “Prebiotic oral care compositions containing carboxylic acids” (COLGATE-PALMOLIVE COMPANY, priority 2013, dated 2021)
